The record followed here is patent US9783527B2, “Indazole ureas and method of use” (AbbVie Inc., priority 2014, dated 2017).

The subject of experiment [1] is MIA-induced osteoarthritic pain in rats. Nature of the experiment: Osteoarthritic (OA) pain induced by sodium monoiodoacetate (MIA), hind limb grip force. The following applies: male Sprague Dawley rats, grip force 20 days after MIA injection. It is filed as in vivo, rat. How it is done:
Osteoarthritic (OA) Pain Induced by Sodium Monoiodoacetate (MIA)
Pain behavior was assessed by measurement of hind limb grip force (GF) in adult osteoarthritic rats. Male Sprague Dawley rats, obtained from Charles River Laboratories, (Wilmington, Mass.), weighing 150-175 g, were injected in the unilateral knee join with a single intra-articular injection of sodium monoiodoacetate (MIA, 3 mg/rat). All rats were tested at 20 days following MIA injection. A behavioral measure of activity-induced pain was carried out. Measurements of the peak hind limb grip force were conducted by recording the maximum compressive force (CFmax), in grams of force, exerted on a hind limb strain gauge setup, in a commercially available grip force measurement system (Columbus Instruments, Columbus, Ohio).
During testing, each rat was gently restrained by grasping it around its rib cage and then allowed to grasp the wire mesh frame attached to the strain gauge. The experimenter then moved the animal in a rostral-to-caudal direction until the grip was broken. Each rat was sequentially tested twice at an approximately 2-3 minute interval to obtain a raw mean grip force (CFmax). This raw mean grip force data was in turn converted to a maximum hindlimb cumulative compressive force (CFmax), as the grams of force/kg of body weight, for each animal.
For evaluating the compound effects, the hind limb grip force was conducted 20 days following the intra-articular injection of MIA. A group of age-matched nave (not injected with MIA) animals was added as a comparator to the drug-dosed groups. The vehicle control response for each group of MIA-treated animals was defined as the 0% response (0% effect), whereas the nave control group was defined as the normal response and as 100% effect. The % effect for each dose group was expressed as % return of response to normalcy, compared to the nave group. A percent maximal possible effect (% MPE) of testing compound was calculated according to the formula: (Treatment CFmax−Vehicle CFmax)/Vehicle CFmax]×100). Higher % effect numbers indicate increased relief from the pain in the model, with 100% indicating a return to the level of response seen in normal (non-osteoarthritic) animals. All experiments evaluating drug effects in this model were conducted in a randomized blinded fashion.
The animals were housed in Association for Assessment and Accreditation of Laboratory Animal Care (AAALAC) approved facilities at AbbVie Inc. in a temperature-regulated environment under a controlled 12-hour light-dark cycle, with lights on at 6:00 a.m. Food and water were available ad libitum at all times except during testing. All testing was done following procedures outlined in protocols approved by AbbVie Inc.'s Institutional Animal Care and Use Committee.

A further experiment has as its target human Nav1.7 (Homo sapiens (Human), UniProt Q15858). Nature of the experiment: FRET-based membrane potential assay, recombinant human sodium channel Nav1.7. It is filed as cell-based. The following applies: HEK293 cells stably expressing recombinant human Nav1.7; depolarization with veratridine (EC80) + scorpion venom. A digest of the protocol: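 IC50 derived by four-parameter Hill fit of percent inhibition of depolarization, measured as peak F440-480/F565-625 ratio over baseline. Stable human Nav1.7 HEK293 cells, dye-loaded with CC2-DMPE and DiSBAC2(3)/VABSC-1 at room temperature, received compound 3 min ahead of veratridine (EC80) plus scorpion venom.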

Structures are written as SMILES. pIC50: −log10 of the molar value.

Sequence of human Nav1.7 (Q15858 whole entry): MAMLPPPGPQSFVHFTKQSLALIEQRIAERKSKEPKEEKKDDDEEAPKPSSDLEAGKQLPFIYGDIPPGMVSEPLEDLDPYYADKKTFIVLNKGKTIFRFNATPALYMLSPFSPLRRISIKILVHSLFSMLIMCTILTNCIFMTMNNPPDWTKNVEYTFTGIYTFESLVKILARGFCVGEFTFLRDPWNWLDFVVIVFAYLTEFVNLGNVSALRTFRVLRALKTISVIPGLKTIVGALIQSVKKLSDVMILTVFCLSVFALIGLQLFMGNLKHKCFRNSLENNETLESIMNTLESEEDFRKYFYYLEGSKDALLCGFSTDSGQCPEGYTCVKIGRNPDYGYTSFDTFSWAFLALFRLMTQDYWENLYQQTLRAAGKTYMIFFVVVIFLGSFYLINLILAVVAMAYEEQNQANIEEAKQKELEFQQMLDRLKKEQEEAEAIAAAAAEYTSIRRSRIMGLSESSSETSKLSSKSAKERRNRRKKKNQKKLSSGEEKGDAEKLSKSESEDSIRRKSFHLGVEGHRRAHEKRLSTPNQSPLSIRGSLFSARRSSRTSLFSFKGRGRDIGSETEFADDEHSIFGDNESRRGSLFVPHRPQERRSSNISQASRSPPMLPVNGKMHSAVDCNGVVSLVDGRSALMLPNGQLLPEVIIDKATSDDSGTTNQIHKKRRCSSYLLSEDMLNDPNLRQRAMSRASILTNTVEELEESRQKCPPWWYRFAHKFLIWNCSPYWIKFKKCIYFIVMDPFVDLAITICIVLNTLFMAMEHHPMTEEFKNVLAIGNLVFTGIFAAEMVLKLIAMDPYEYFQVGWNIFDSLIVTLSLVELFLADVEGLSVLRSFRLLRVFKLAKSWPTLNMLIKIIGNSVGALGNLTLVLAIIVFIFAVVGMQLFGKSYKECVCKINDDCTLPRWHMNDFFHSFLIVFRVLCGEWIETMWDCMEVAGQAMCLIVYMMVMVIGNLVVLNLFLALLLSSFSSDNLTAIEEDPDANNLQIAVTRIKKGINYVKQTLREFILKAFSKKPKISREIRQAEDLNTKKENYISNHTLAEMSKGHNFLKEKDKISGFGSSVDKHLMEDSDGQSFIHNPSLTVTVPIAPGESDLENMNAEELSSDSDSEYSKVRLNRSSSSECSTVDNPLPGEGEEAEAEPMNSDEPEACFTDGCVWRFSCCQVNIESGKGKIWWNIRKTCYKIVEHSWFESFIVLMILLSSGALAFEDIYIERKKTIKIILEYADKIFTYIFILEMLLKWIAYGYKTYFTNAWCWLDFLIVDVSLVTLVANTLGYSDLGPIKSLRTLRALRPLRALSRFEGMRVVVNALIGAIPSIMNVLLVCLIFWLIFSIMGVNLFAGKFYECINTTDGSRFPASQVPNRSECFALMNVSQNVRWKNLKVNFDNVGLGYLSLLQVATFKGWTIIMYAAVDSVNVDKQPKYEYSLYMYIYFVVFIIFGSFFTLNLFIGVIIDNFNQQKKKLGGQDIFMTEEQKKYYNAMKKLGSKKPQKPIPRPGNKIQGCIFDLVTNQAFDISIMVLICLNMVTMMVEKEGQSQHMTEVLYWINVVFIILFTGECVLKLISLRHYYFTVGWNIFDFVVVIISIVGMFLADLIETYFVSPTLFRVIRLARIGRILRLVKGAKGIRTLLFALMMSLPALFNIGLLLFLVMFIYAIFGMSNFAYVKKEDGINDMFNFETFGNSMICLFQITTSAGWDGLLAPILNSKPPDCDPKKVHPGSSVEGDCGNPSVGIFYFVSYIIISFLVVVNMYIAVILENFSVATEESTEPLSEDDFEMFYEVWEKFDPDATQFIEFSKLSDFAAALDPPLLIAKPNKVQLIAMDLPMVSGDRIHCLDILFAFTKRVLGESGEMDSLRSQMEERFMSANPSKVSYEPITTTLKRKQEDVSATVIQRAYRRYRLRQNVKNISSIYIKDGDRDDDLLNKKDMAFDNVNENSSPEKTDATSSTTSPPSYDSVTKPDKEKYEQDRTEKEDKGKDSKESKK

`O=C(CN1CCN(c2cccc3c2cnn3-c2ccccc2F)C1=O)NC1CC1` [Example 13, N-cyclopropyl-2-{3-[1-(2-fluorophenyl)-1H-indazol-4-yl]-2-oxoimidazolidin-1-yl}acetamide]: the “OA MPE (%)” value in experiment [1] (OA dose 30 mg/kg) is listed as 47%. What is called pIC50 is the IC50 on a negative log10 scale, so that one unit is a factor of ten. `O=C1N(Cc2nc(C(F)(F)F)cs2)CCN1c1cccc2c1cnn2-c1ccccc1F` [Example 14, 1-[1-(2-fluorophenyl)-1H-indazol-4-yl]-3-{[4-(trifluoromethyl)-1,3-thiazol-2-yl]methyl}imidazolidin-2-one]: the “OA MPE (%)” value in experiment [1] (OA dose 30 mg/kg) is given as 60%. In addition, the pIC50 on human Nav1.7 was 6.21. As to `O=C1N(CC(=O)N2C[C@@H]3C[C@H]2CO3)CCN1c1cccc2c1cnn2-c1ccccc1F` [Example 16, 1-[1-(2-fluorophenyl)-1H-indazol-4-yl]-3-{2-[(1S,4S)-2-oxa-5-azabicyclo[2.2.1]hept-5-yl]-2-oxoethyl}imidazolidin-2-one], the “OA MPE (%)” value in experiment [1] (OA dose 30 mg/kg) is listed as 67%. In addition, at human Nav1.7, the pIC50 was 6.13. In the case of `O=C(CN1CCN(c2cccc3c2cnn3-c2ccccc2F)C1=O)N1CCCC(F)C1` (centres unmarked) [Example 17, 1-[1-(2-fluorophenyl)-1H-indazol-4-yl]-3-[2-(3-fluoropiperidin-1-yl)-2-oxoethyl]imidazolidin-2-one], the “OA MPE (%)” value in experiment [1] (OA dose 30 mg/kg) amounted to 91%.

As to `O=C1N(CC(=O)N2C[C@@H](F)C[C@@H]2c2cc(F)ccc2F)CCN1c1cccc2c1cnn2-c1ccccc1F` [Example 18, 1-{2-[(2R,4S)-2-(2,5-difluorophenyl)-4-fluoropyrrolidin-1-yl]-2-oxoethyl}-3-[1-(2-fluorophenyl)-1H-indazol-4-yl]imidazolidin-2-one], the “OA MPE (%)” value in experiment [1] (OA dose 10 mg/kg) came out at 65%. For the same compound, at human Nav1.7, the pIC50 is 6.24. The matching figures for `O=C1N(c2cccnc2)CCN1c1cccc2c1cnn2-c1ccccc1F` [Example 19, 1-[1-(2-fluorophenyl)-1H-indazol-4-yl]-3-(pyridin-3-yl)imidazolidin-2-one]: 67% and 5.53. On to `O=C1N(c2ccncc2)CCN1c1cccc2c1cnn2-c1ccccc1F` [Example 20, 1-[1-(2-fluorophenyl)-1H-indazol-4-yl]-3-(pyridin-4-yl)imidazolidin-2-one], for which the “OA MPE (%)” value in experiment [1] (OA dose 10 mg/kg) was 91%. Turning to `CC(C)(C)C(O)CN1CCN(c2cccc3c2cnn3-c2ccccc2F)C1=O` (centres unmarked) [Example 22, 1-[1-(2-fluorophenyl)-1H-indazol-4-yl]-3-(2-hydroxy-3,3-dimethylbutyl)imidazolidin-2-one], the “OA MPE (%)” value in experiment [1] (OA dose 30 mg/kg) is 38%. Also, the pIC50 at human Nav1.7 was 5.52. As to `O=C(CN1CCCN(c2cccc3c2cnn3-c2ccccc2F)C1=O)N1CC[C@H](F)C1` [Example 23, 1-[1-(2-fluorophenyl)-1H-indazol-4-yl]-3-{2-[(3S)-3-fluoropyrrolidin-1-yl]-2-oxoethyl}tetrahydropyrimidin-2(1H)-one], the “OA MPE (%)” value in experiment [1] (OA dose 30 mg/kg) is on record as 45%. The pIC50 at human Nav1.7 is 5.83. For the compound `Cc1csc(CN2CCN(c3cccc4c3cnn4-c3ccccc3F)C2=O)n1` [Example 24, 1-[1-(2-fluorophenyl)-1H-indazol-4-yl]-3-[(4-methyl-1,3-thiazol-2-yl)methyl]imidazolidin-2-one], the “OA MPE (%)” value in experiment [1] (OA dose 10 mg/kg) came to 62%. In addition, the pIC50 on human Nav1.7 was 6.47. On to `O=C1N(c2ncccn2)CCN1c1cccc2c1cnn2-c1ccccc1F` [Example 28, 1-[1-(2-fluorophenyl)-1H-indazol-4-yl]-3-(pyrimidin-2-yl)imidazolidin-2-one], for which the “OA MPE (%)” value in experiment [1] (OA dose 10 mg/kg) was 62%. The pIC50 at human Nav1.7 was 6.34. Regarding `O=C1N(Cc2nnco2)CCN1c1cccc2c1cnn2-c1ccccc1F` [Example 29, 1-[1-(2-fluorophenyl)-1H-indazol-4-yl]-3-(1,3,4-oxadiazol-2-ylmethyl)imidazolidin-2-one], the “OA MPE (%)” value in experiment [1] (OA dose 10 mg/kg) worked out at 46%. The pIC50 on human Nav1.7 was 5.66. The matching figures for `O=C1N(Cc2nnc(C3CC3)s2)CCN1c1cccc2c1cnn2-c1ccccc1F` [Example 30, 1-[(5-cyclopropyl-1,3,4-thiadiazol-2-yl)methyl]-3-[1-(2-fluorophenyl)-1H-indazol-4-yl]imidazolidin-2-one]: 80% and 5.89.

On to `Cc1cnc(N2CCN(c3cccc4c3cnn4-c3ccccc3F)C2=O)nc1` [Example 33, 1-[1-(2-fluorophenyl)-1H-indazol-4-yl]-3-(5-methylpyrimidin-2-yl)imidazolidin-2-one], for which the “OA MPE (%)” value in experiment [1] (OA dose 10 mg/kg) stood at 17%. Besides, the pIC50 at human Nav1.7 was 6.20.

Take `O=C1N(Cc2nccs2)CCN1c1cccc2c1cnn2-c1ccccc1F` [Example 34, 1-[1-(2-fluorophenyl)-1H-indazol-4-yl]-3-(1,3-thiazol-2-ylmethyl)imidazolidin-2-one]: in experiment [1] (OA dose 10 mg/kg), the “OA MPE (%)” value was determined as 43%. Further, the pIC50 at human Nav1.7 was 6.38. On to `O=C1N(Cc2cnccn2)CCN1c1cccc2c1cnn2-c1ccccc1F` [Example 35, 1-[1-(2-fluorophenyl)-1H-indazol-4-yl]-3-(pyrazin-2-ylmethyl)imidazolidin-2-one], for which the “OA MPE (%)” value in experiment [1] (OA dose 10 mg/kg) is on record as 19%. Also, at human Nav1.7, the negative logarithm of the IC50 (pIC50) was 6.13. Turning to `O=C1N(Cc2ncco2)CCN1c1cccc2c1cnn2-c1ccc(F)cc1F` [Example 36, 1-[1-(2,4-difluorophenyl)-1H-indazol-4-yl]-3-(1,3-oxazol-2-ylmethyl)imidazolidin-2-one], the “OA MPE (%)” value in experiment [1] (OA dose 10 mg/kg) stood at 27%. Also, the pIC50 at human Nav1.7 is 6.19. For `O=C1N(Cc2cocn2)CCN1c1cccc2c1cnn2-c1ccc(F)cc1F` [Example 37, 1-[1-(2,4-difluorophenyl)-1H-indazol-4-yl]-3-(1,3-oxazol-4-ylmethyl)imidazolidin-2-one], in that order: 35% and 6.41. `C[C@H]1CN(c2cccc3c2cnn3-c2ccccc2F)C(=O)N1Cc1ncco1` [Example 38, (4S)-1-[1-(2-fluorophenyl)-1H-indazol-4-yl]-4-methyl-3-(1,3-oxazol-2-ylmethyl)imidazolidin-2-one]: the “OA MPE (%)” value in experiment [1] (OA dose 10 mg/kg) amounted to 33%. Further, the negative logarithm of the IC50 (pIC50) at human Nav1.7 is 5.86. Turning to `O=C1N(Cc2cscn2)CCN1c1cccc2c1cnn2-c1ccccc1F` [Example 39, 1-[1-(2-fluorophenyl)-1H-indazol-4-yl]-3-(1,3-thiazol-4-ylmethyl)imidazolidin-2-one], the “OA MPE (%)” value in experiment [1] (OA dose 10 mg/kg) was 38%. Moreover, at human Nav1.7, the pIC50 is 6.52. Turning to `Cc1nnc(CN2CCN(c3cccc4c3cnn4-c3ccccc3F)C2=O)s1` [Example 40, 1-[1-(2-fluorophenyl)-1H-indazol-4-yl]-3-[(5-methyl-1,3,4-thiadiazol-2-yl)methyl]imidazolidin-2-one], the “OA MPE (%)” value in experiment [1] (OA dose 10 mg/kg) worked out at 41%. The pIC50 on human Nav1.7 was 5.50. `Cc1cnc(CN2CCN(c3cccc4c3cnn4-c3ccccc3F)C2=O)o1` [Example 41, 1-[1-(2-fluorophenyl)-1H-indazol-4-yl]-3-[(5-methyl-1,3-oxazol-2-yl)methyl]imidazolidin-2-one]: the “OA MPE (%)” value in experiment [1] (OA dose 10 mg/kg) was 47%. Further, the pIC50 on human Nav1.7 was 5.80. On to `Cc1cncc(CN2CCN(c3cccc4c3cnn4-c3ccccc3F)C2=O)n1` [Example 42, 1-[1-(2-fluorophenyl)-1H-indazol-4-yl]-3-[(6-methylpyrazin-2-yl)methyl]imidazolidin-2-one], for which, in experiment [1] (OA dose 10 mg/kg), the “OA MPE (%)” value was determined as 35%. `Cc1nccnc1CN1CCN(c2cccc3c2cnn3-c2ccccc2F)C1=O` [Example 43, 1-[1-(2-fluorophenyl)-1H-indazol-4-yl]-3-[(3-methylpyrazin-2-yl)methyl]imidazolidin-2-one]: in experiment [1] (OA dose 30 mg/kg), the “OA MPE (%)” value is reported as 71%. Also, the pIC50 at human Nav1.7 was 6.04. For `Cc1nnc(CN2CCN(c3cccc4c3cnn4-c3ccccc3F)C2=O)o1` [Example 44, 1-[1-(2-fluorophenyl)-1H-indazol-4-yl]-3-[(5-methyl-1,3,4-oxadiazol-2-yl)methyl]imidazolidin-2-one], the “OA MPE (%)” value in experiment [1] (OA dose 30 mg/kg) is listed as 71%. For the same compound, the pIC50 at human Nav1.7 is 5.53. As for `O=C(CN1CCN(c2cccc3c2cnn3-c2ccccc2F)C1=O)N1CCC[C@H](F)C1` [Example 54, 1-[1-(2-fluorophenyl)-1H-indazol-4-yl]-3-{2-[(3S)-3-fluoropiperidin-1-yl]-2-oxoethyl}imidazolidin-2-one], the “OA MPE (%)” value in experiment [1] (OA dose 30 mg/kg) is 57%.
